Data: ChEMBL document CHEMBL1201862, “PubChem BioAssay data set” (2004)
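Briefly, cells in 96-well plates were exposed to five compound concentrations for 48 h, and endpoints were estimated by linear interpolation. GI50: concentration for 50% inhibition of growth.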 Calls of active or inactive are those of the source. Rule as the data show it: active = GI50 up to about 1.1 µM and inactive = higher.

Experiments:
Experiment in all cases: growth of human tumour cells (NCI), 48 h
DU-145 = system: DU-145
PC-3 = system: PC-3
HOP-62 = system: HOP-62
UO-31 = system: UO-31
K562 = system: K562
T47D = system: T47D
SK-MEL-28 = system: SK-MEL-28
SNB-75 = system: SNB-75
RPMI-8226 = system: RPMI-8226
BT-549 = system: BT-549
A549 = system: A549
SR = system: SR
HOP-92 = system: HOP-92
ACHN = system: ACHN
COLO 205 = system: COLO 205
MDA-MB-231 = system: MDA-MB-231
MDA-MB-435 = system: MDA-MB-435
CAKI-1 = system: CAKI-1
EKVX = system: EKVX
Hs-578T = system: Hs-578T

Measured: GI50

NCc1ccc(O)c(O)c1
inactive: DU-145 > 100 µM | PC-3 > 100 µM | HOP-62 > 100 µM | UO-31 > 100 µM | K562 > 100 µM | T47D > 100 µM | SK-MEL-28 > 100 µM | SNB-75 > 100 µM | RPMI-8226 > 100 µM | BT-549 > 100 µM | A549 > 100 µM | SR 38.5 µM | HOP-92 > 100 µM | ACHN > 100 µM | COLO 205 > 100 µM | MDA-MB-231 > 100 µM | MDA-MB-435 > 100 µM | CAKI-1 > 100 µM | EKVX > 100 µM

Cn1c2c(c3ccccc31)CC(=S)N1CCCC(CC2O)C1 (configuration not stated)
inactive: DU-145 > 100 µM | PC-3 > 100 µM | Hs-578T > 100 µM | UO-31 45.8 µM | K562 > 100 µM | T47D > 100 µM | SK-MEL-28 > 100 µM | SNB-75 > 100 µM | RPMI-8226 > 100 µM | BT-549 > 100 µM | A549 > 100 µM | HOP-92 > 100 µM | ACHN > 100 µM | COLO 205 > 100 µM | MDA-MB-231 > 100 µM | MDA-MB-435 > 100 µM | CAKI-1 > 100 µM

CC(C)C(C(=O)O)N1C(=O)c2ccccc2C1=O (configuration not stated)
inactive: DU-145 > 100 µM | PC-3 > 100 µM | Hs-578T > 100 µM | HOP-62 > 100 µM | K562 > 100 µM | T47D > 100 µM | SK-MEL-28 > 100 µM | SNB-75 > 100 µM | RPMI-8226 > 100 µM | BT-549 > 100 µM | A549 > 100 µM | HOP-92 > 100 µM | ACHN > 100 µM | COLO 205 > 100 µM | MDA-MB-231 > 100 µM | MDA-MB-435 > 100 µM | CAKI-1 > 100 µM | EKVX > 100 µM

COc1ccc(C2=NN(c3ccccc3)C(c3cc4cc(Br)ccc4nc3Cl)C2)cc1 (configuration not stated)
inactive: DU-145 > 25 µM | PC-3 23 µM | Hs-578T > 25 µM | HOP-62 18.8 µM | UO-31 > 25 µM | K562 14.1 µM | T47D > 25 µM | SK-MEL-28 > 25 µM | SNB-75 > 25 µM | RPMI-8226 > 25 µM | BT-549 > 25 µM | A549 15.1 µM | SR 16.3 µM | HOP-92 > 25 µM | COLO 205 9.71 µM | MDA-MB-435 14.3 µM | CAKI-1 22.8 µM | EKVX 11.9 µM
